# According to US9415047B2, “Use of benzo five-membered nitrogen heterocyclic piperazine or piperidine derivatives” (Liaoning Emmy Biological Pharmaceutical Co., Ltd., priority 2012, dated 2016):
# Experiments:
# [1] = test system: high kalium concentration constricted rabbit aorta; test: Relaxing effects on vascular smooth muscle constricted by high kalium concentration in vitro; details: Oryctolagus cuniculus, relaxation of rabbit aorta constricted by high kalium solution (K+ 60 mmol/L); mean±SEM, n=5
# Procedure: Adrenaline hydrochloride (AD) (10^−5 mol/L) was added into a bath tube to induce constriction, when maximal constriction was achieved, the sample was completely flushed, K-H solution was changed for every 20 min. Contents in the tube was balanced for 60 min, when baseline recovered to be stable, K-H solution in the bath tube was replaced with high kalium concentration solution to induce constriction. When the later maximal constriction response was basically consistent with the former one, the prepared compound solutions were subsequently added, including compound II-1 to II-60 solutions (1×10^−8-1×10^−3 mol/L), compound II-84 to II-123 solutions (1×10^−10-1×10^−2 mol/L) and compound II-124 to II-157 solutions (1×10^−10-1×10^−3 mol/L), to record the waveforms. Relaxing percentage of the compound was used as Y axis, maximal relaxation response was 100%, negative logarithm of different concentration was used as X axis, to draw dose effect curve (expressed in mean±SEM ( ? ), n=5). Compounds II-2 and II-3 had the most obvious relaxing effects (FIG. 2 and FIG. 9).
# [2] = test system: AD constricted rabbit aorta; test: Relaxing effects on vascular smooth muscle constricted by adrenaline hydrochloride (AD) in vitro; details: Oryctolagus cuniculus; relaxation of rabbit aorta constricted by adrenaline (10^−5 mol/L); mean±SEM, n=5
# Procedure: Adrenaline hydrochloride (AD) (10^−5 mol/L) was added into a bath tube to induce constriction, when maximal constriction was achieved, the sample was completely flushed, K-H solution was changed for every 20 min. Contents in the tube was balanced for 60 min, when baseline recovered to be stable, the […] was added at the same concentration to induce constriction. When the later maximal constriction response was basically consistent with the former one, the prepared compound solutions were subsequently added, including compound II-1 to II-60 solutions (1×10^−8-1×10^−3 mol/L), compound II-84 to II-123 solutions (1×10^−10-1×10^−2 mol/L) and compound II-124 to II-157 solutions (1×10^−10˜1×10^−3 mol/L), to record the waveforms. Relaxing percentage of the compound was used as Y axis, maximal relaxation response was 100%, negative logarithm of different concentration was used as X axis, to draw dose effect curve (expressed in mean±SEM ( ? ), n=5). Compounds II-2 and II-3 had the most obvious relaxing effects (FIG. 1 and FIG. 8).
Compound,EC50 [1],EC50 [2]
"FC(F)(F)c1cccc(N2CCN(CCCCn3ccc4ccccc43)CC2)c1 [II-57, 1-(4-(4-(3-trifluoromethylphenyl)piperazine-1-yl)butyl)-1H-indole]",263 µM,61.7 µM
"FC(F)(F)c1cccc(N2CCN(CCCOn3cnc4ccccc43)CC2)c1 [II-23, 1-(4-(4-(3-trifluoromethylphenyl)piperazine-1-yl)propoxyl)-1H-benzimidazole]",38 µM,19.1 µM
"Fc1ccc2ncn(CCCCN3CCN(c4cccc(C(F)(F)F)c4)CC3)c2c1 [II-6, 6-fluoro-1-(4-(4-(3-trifluoromethylphenyl)piperazine-1-yl)butyl)-1H-benzimidazole]",38.9 µM,23.4 µM
"c1ccc2nc(N3CCN(CCCCn4nnc5ccccc54)CC3)cnc2c1 [II-48, 1-(4-(4-(2-quinoxalinyl)piperazine-1-yl)butyl)-1H-benzotriazole]",372 µM,148 µM
"c1ccc2c(c1)ncn2CCCCN1CCN(C2CCCCC2)CC1 [II-15, 1-(4-(4-(1-cyclohexyl)piperazine-1-yl)butyl)-1H-benzimidazole]",30.2 µM,33.9 µM
"Fc1ccc2c(C3CCN(CCCCn4nnc5ccccc54)CC3)noc2c1 [II-144, N-(4-(1-benzotriazolyl)butyl)-4-(3-(6-fluorobenzisoxazolyl))piperidine]",110 µM,1.1 µM
"FC(F)(F)c1cccc(N2CCN(CCCCCn3c(Cl)nc4ccccc43)CC2)c1 [II-28, 2-chloro-1-(5-(4-(3-trifluoromethylphenyl)piperazine-1-yl)pentyl)-1H-benzimidazole]",141 µM,102 µM
"Fc1ccc2c(N3CCN(CCCCn4nnc5ccccc54)CC3)noc2c1 [II-36, 6-fluoro-3-(4-(4-(1H-benzotriazole-1-yl)butyl)piperazine-1-yl)benzisoxazole]",4.9 µM,4.9 µM
"Cc1ccc(N2CCN(CCCCn3cnc4ccccc43)CC2)cc1 [II-11, 1-(4-(4-(4-methylphenyl)piperazine-1-yl)butyl)-1H-benzimidazole]",141 µM,89.1 µM
"FC(F)(F)c1cccc(N2CCN(CCCCCn3nnc4ccccc43)CC2)c1 [II-42, 1-(5-(4-(3-trifluoromethylphenyl)piperazine-1-yl)pentyl)-1H-benzotriazole]",117 µM,40.7 µM
"FC(F)(F)c1cccc(N2CCN(CCCn3ncc4ccccc43)CC2)c1 [II-59, 1-(3-(4-(3-trifluoromethylphenyl)piperazine-1-yl)propyl)-1H-benzopyrazole]",61.7 µM,29.5 µM
"Fc1ccc2c(N3CCN(CCCn4nnc5ccccc54)CC3)coc2c1 [II-51, 1-(3-(4-(3-(6-fluorobenzofuranyl))piperazine-1-yl)propyl)-1H-benzotriazole]",34.7 µM,30.2 µM
"Fc1ccc2c(N3CCN(CCCOn4cnc5ccccc54)CC3)noc2c1 [II-22, 1-(3-(4-(3-(6-fluorobenzisoxazolyl))piperazine-1-yl)propoxyl)-1H-benzimidazole]",22.9 µM,28.2 µM
"N#Cc1cccc(N2CCN(CCCCn3cnc4ccccc43)CC2)c1 [II-10, 1-(4-(4-(3-cyanophenyl)piperazine-1-yl)butyl)-1H-benzimidazole]",110 µM,55 µM
"c1cnc(N2CCN(CCCCn3cnc4ccccc43)CC2)nc1 [II-14, 1-(4-(4-(2-pyrimidinyl)piperazine-1-yl)butyl)-1H-benzimidazole]",89.1 µM,60.3 µM
"Clc1cccc(N2CCN(CCCCn3nnc4ccccc43)CC2)c1 [II-29, 1-(4-(4-(3-chlorophenyl)piperazine-1-yl)butyl)-1H-benzotriazole]",2.29 µM,0.977 µM
"Clc1cccc(N2CCN(CCCCn3cnc4ccccc43)CC2)c1 [II-1, 1-(4-(4-(3-chlorophenyl)piperazine-1-yl)butyl)-1H-benzimidazole]",8.91 µM,9.33 µM
